# Laboratory results from PMC10743905, “Design, Synthesis, and In Vitro and In Vivo Bioactivity Studies of Hydrazide–Hydrazones of 2,4-Dihydroxybenzoic Acid” (International Journal of Molecular Sciences, 2023).
# Where two headings read alike, the source gives them in different places.
# Key:
# Pasteurella multocida = tested on: Pasteurella multocida; set-up: method as in PMID 23510516; settings: cited from earlier work
# Neisseria gonorrhoeae = tested on: Neisseria gonorrhoeae; set-up: method as in PMID 23510516; settings: cited from earlier work
# Enterococcus faecalis = tested on: Enterococcus faecalis; set-up: method as in PMID 23510516; settings: cited from earlier work
# MCF-7 cell line = tested on: MCF-7 cell line; set-up: method as in PMID 34578985; settings: MCF-7 breast cancer cell line; cited from earlier work
# [1] = tested on: Staphylococcus aureus MRSA strain; set-up: method as in PMID 23510516; settings: cited from earlier work
# MDA-MB-231 cell line = tested on: MDA-MB-231 cell line; set-up: method as in PMID 34578985; settings: MDA-MB-231 breast cancer cell line; cited from earlier work
# Escherichia coli = tested on: Escherichia coli; set-up: method as in PMID 23510516; settings: cited from earlier work
# [2] = tested on: reference Gram-positive bacteria; experiment: Broth microdilution, summary over the Gram-positive panel; type: cell-based; settings: read-out: MIC
# From the text: (§1) In vitro antimicrobial activity assays - Methodology
# (§2) The examined compounds 1 - 24 were screened in vitro for antibacterial and antifungal activities using the broth microdilution method according to procedure reported earlier by our research group and European Committee on Antimicrobial Susceptibility Testing (EUCAST) and Clinical and Laboratory Standards Institute (CLSI) guidelines against a panel of reference and clinical or saprophytic strains of microorganisms, in-cluding Gram-positive bacteria, Staphylococcus aureus ATCC 43300 (Methicillin Resistant S. aureus – MRSA), Staphylococcus aureus ATCC 29213 (Methicillin Susceptible S. aureus – MSSA), Staphylococcus epidermidis ATCC 12228, Enterococcus faecalis ATCC 29212, Micro-coccus luteus ATCC 10240, Bacillus subtilis ATCC 6633 and Bacillus cereus ATCC 10876), Gram-negative bacteria (Bordetella bronchiseptica ATCC 4617, Escherichia coli ATCC 25922, Klebsiella pneumoniae ATCC 13883, Proteus mirabilis ATCC 12453, Salmonella typhimurium ATCC 14028 and Pseudomonas aeruginosa ATCC 9027) and fungi belonging to yeasts (Can-dida albicans ATCC 10231, Candida albicans ATCC 2091, Candida parapsilosis ATCC 22019, Candida glabrata ATCC 90030 and Candida krusei ATCC 14243). The microorganisms be-longing to ATCC came from American Type Culture Collection, routinely used for the evaluation of antimicrobials. […]
# Samples containing examined compounds were dissolved in dimethyl sulfoxide (DMSO). […]
# (§3) Subsequently, the MIC (Minimal Inhibitory Concentration) of the compounds was ex-amined by the microdilution broth method, using their two-fold dilutions in Mueller- […]
# (§4) Hinton broth or (for bacteria) and RPMI 1640 broth with MOPS (for fungi) prepared in 96-well polystyrene plates. Final concentrations of the compounds ranged from 1000 to 0.488 µg/ml. Microbial suspensions were prepared in 0.85% NaCl with an optical density of 0.5 McFarland standard. Next each bacterial or fungal suspension was added per each well containing broth and various concentrations of the examined compounds. After incuba-
# [3] = tested on: Bacillus cereus ATCC 10876; experiment: Broth microdilution MIC/MBC; type: cell-based
# Procedure, shortened: (§5)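 Two-fold dilution series (final 1000–0.488 µg/ml) set up in Mueller-Hinton or RPMI 1640/MOPS broth. Suspensions in 0.85% NaCl at 0.5 McFarland were added to each well.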
# [4] = tested on: Klebsiella pneumoniae ATCC 13883; experiment: Broth microdilution MIC/MBC; type: cell-based
# Procedure, shortened: as §5
# [5] = tested on: Escherichia coli ATCC 25922; experiment: Broth microdilution MIC/MBC; type: cell-based
# Procedure, shortened: as §5
# [6] = tested on: Bordetella bronchiseptica ATCC 4617; experiment: Broth microdilution MIC/MBC; type: cell-based
# Procedure, shortened: as §5
# [7] = tested on: Enterococcus faecalis ATCC 29212; experiment: Broth microdilution MIC/MBC; type: cell-based
# Procedure, shortened: as §5
# [8] = tested on: Staphylococcus aureus ATCC 29213; experiment: Broth microdilution MIC/MBC; type: cell-based
# Procedure, shortened: as §5
# [9] = tested on: Staphylococcus aureus ATCC 43300; experiment: Broth microdilution MIC/MBC; type: cell-based; settings: Staphylococcus aureus ATCC 43300 (MRSA)
# Procedure, shortened: as §5
# [10] = tested on: Proteus mirabilis ATCC 12453; experiment: Broth microdilution MIC/MBC; type: cell-based
# Procedure, shortened: as §5
# [11] = tested on: Salmonella typhimurium ATCC 14028; experiment: Broth microdilution MIC/MBC; type: cell-based
# Procedure, shortened: as §5
# [12] = tested on: Staphylococcus epidermidis ATCC 12228; experiment: Broth microdilution MIC/MBC; type: cell-based
# Procedure, shortened: as §5
# [13] = tested on: Micrococcus luteus ATCC 10240; experiment: Broth microdilution MIC/MBC; type: cell-based
# Procedure, shortened: as §5
# [14] = tested on: Pseudomonas aeruginosa ATCC 9027; experiment: Broth microdilution MIC/MBC; type: cell-based; settings: ATCC9027
# Procedure, shortened: as §5
# [15] = tested on: Bacillus subtilis ATCC 6633; experiment: Broth microdilution MIC/MBC; type: cell-based
# Procedure, shortened: as §5
# Gram-negative bacteria = experiment: Broth microdilution, summary over the Gram-negative panel; type: cell-based
# From the text: as §1
# as §2, with “antimicrobials. All the used microbial cultures were first subcultured on nu-trient agar or Sabouraud agar at 35°C for 18-24 h or 30°C for 24-48 h for bacteria and fungi,” for “antimicrobials.”
# The surface of Mueller-Hinton agar (for bacteria) and RPMI 1640 with MOPS (for fungi) were inoculated with the suspensions of bacterial or fungal species. Microbial suspensions were prepared in sterile saline with an optical density of McFarland standard scale 0.5.
# Samples containing examined compounds were dissolved in dimethyl sulfoxide (DMSO).
# Furthermore, bacterial and fungal suspensions were put onto Petri dishes with solid me-dia containing 2 mg/mL of the tested compounds followed incubation at 37°C for 24h and 30°C for 48h for bacteria and fungi, respectively. The inhibition of microbial growth was judged by comparison with a control culture prepared without any sample tested. Ciprof-loxacin, vancomycin, nitrofurantoin, cefuroxime, ampicillin or nystatin (Sigma) were used as a reference antibacterial or antifungal compounds, respectively.
# as §3, §4
# [16] = tested on: Candida albicans ATCC 10231; experiment: Broth microdilution MIC/MFC; type: cell-based; settings: ATCC10231, read-out: MIC
# Procedure, shortened: as §5
# [17] = tested on: Candida glabrata ATCC 90030; experiment: Broth microdilution MIC/MFC; type: cell-based
# Procedure, shortened: as §5
# [18] = tested on: Candida krusei ATCC 14243; experiment: Broth microdilution MIC/MFC; type: cell-based; settings: Pichia kudriavzevii, ATCC14243, read-out: MIC
# Procedure, shortened: as §5
# [19] = tested on: Candida parapsilosis ATCC 22019; experiment: Broth microdilution MIC/MFC; type: cell-based
# Procedure, shortened: as §5
# [20] = tested on: Candida albicans ATCC 2091; experiment: Broth microdilution MIC/MFC; type: cell-based; settings: ATCC2091, read-out: MIC
# Procedure, shortened: as §5
smiles,measurement,setting,value
"O=C(O)c1ccc(O)cc1O [2,4-dihydroxybenzoic acid]",MIC,Pasteurella multocida,1.0 mg/mL
same,MIC,Neisseria gonorrhoeae,1.0 mg/mL
same,MIC,Enterococcus faecalis,1.0 mg/mL
same,cytotoxicity,MCF-7 cell line,nontoxic
same,MIC,[1],0.5 mg/mL
same,IC50,MDA-MB-231 cell line,4.77 mM
same,MIC,Escherichia coli,1.0 mg/mL
"Cc1cccc(/C=N/NC(=O)c2ccc(O)cc2O)c1 [Compound 2, 2,4-dihydroxy-N-[(3-methylphenyl)methylidene]benzohydrazide]",MIC,[2],15.6 to 1000 µg/mL
same,MBC/MIC,[3],2
same,MBC,[3]; ATCC10876,250 µg/mL
same,MIC,"[3]; ATCC10876, read-out: MIC",125 µg/mL
same,MBC/MIC,[4],> 1
same,MBC,[4]; ATCC13883,> 1000 µg/mL
same,MIC,[4]; ATCC13883,1000 µg/mL
same,MBC/MIC,[5],> 1
same,MBC,[5]; ATCC25922,> 1000 µg/mL
same,MIC,[5]; ATCC25922,1000 µg/mL
same,MBC/MIC,[6],> 1
same,MBC,[6]; ATCC4617,> 1000 µg/mL
same,MIC,[6]; ATCC4617,1000 µg/mL
same,MBC/MIC,[7],1
same,MBC,"[7]; ATCC29212, read-out: MBC",500 µg/mL
same,MIC,"[7]; ATCC29212, read-out: MIC",500 µg/mL
same,MBC/MIC,[8],1
same,MBC,[8]; ATCC29213,250 µg/mL
same,MIC,[8]; ATCC29213,250 µg/mL
same,MBC,[9],500 µg/mL
same,MBC/MIC,[9],2
same,MIC,[9],250 µg/mL
same,MBC/MIC,[10],> 1
same,MBC,[10]; ATCC12453,> 1000 µg/mL
same,MIC,[10]; ATCC12453,1000 µg/mL
same,MBC/MIC,[11],> 1
same,MBC,[11]; Salmonella enterica,> 1000 µg/mL
same,MIC,[11]; Salmonella enterica,1000 µg/mL
same,MBC/MIC,[12],2
same,MBC,[12]; ATCC12228,500 µg/mL
same,MIC,"[12]; ATCC12228, read-out: MIC",250 µg/mL
same,MBC/MIC,[13],8
same,MIC,[13],31.25 µg/mL
same,MBC,[13]; ATCC10240,250 µg/mL
same,MIC,"[13]; ATCC10240, read-out: MIC",31.2 µg/mL
same,MIC,[14],> 1000 µg/mL
same,MBC/MIC,[15],8
same,MIC,[15],62.5 µg/mL
same,MBC,[15]; ATCC6633,500 µg/mL
same,MIC,"[15]; ATCC6633, read-out: MIC",62.5 µg/mL
same,MBC,Gram-negative bacteria,> 1000 µg/mL
same,MIC,Gram-negative bacteria,500 to 1000 µg/mL
same,MIC,[16],> 1000 µg/mL
same,MFC/MIC,[17],2
same,MFC,"[17]; Nakaseomyces glabratus, ATCC90030, read-out: MFC",500 µg/mL
same,MIC,"[17]; Nakaseomyces glabratus, ATCC90030, read-out: MIC",250 µg/mL
same,MIC,[18],> 1000 µg/mL
same,MFC/MIC,[19],> 2
same,MFC,"[19]; Lodderomyces parapsilosis, ATCC22019, read-out: MFC",> 1000 µg/mL
same,MIC,"[19]; Lodderomyces parapsilosis, ATCC22019, read-out: MIC",500 µg/mL
same,MIC,[20],> 1000 µg/mL
